Results: the supplement of paper PMC10307832

What was measured:
Assay in all cases: relative viability (nuclei count vs DMSO), 5 days (fraction); higher = more cells survive
EPLC-272H = system: EPLC-272H
Method in brief: (§1)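 Cells from lung cancer lines were seeded into 1536-well plates and, one day later, dosed by pin tool. Treatments were either a single drug or a fixed dose of an anchor drug with five library-drug doses (not always all listed) in √10 steps. After 5 days, nuclei were stained in a one-step fixation (final 0.05% Triton X-100, 1% formaldehyde, 1 ug/ml Hoechst) and counted on 4× images, and relative viability is the treated-to-vehicle nuclei ratio, as the median of duplicate plates.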

PC-14 = system: PC-14
Method in brief: as §1

HOP-62 = system: HOP-62
Method in brief: as §1

NCI-H1915 = system: NCI-H1915
Method in brief: as §1

NCI-H2347 = system: NCI-H2347
Method in brief: as §1

NCI-H1355 = system: NCI-H1355
Method in brief: as §1

LU99A = system: LU99A
Method in brief: as §1

LC-2-ad = system: LC-2-ad
Method in brief: as §1

UMC-11 = system: UMC-11
Method in brief: as §1

NCI-H2085 = system: NCI-H2085
Method in brief: as §1

NCI-H1651 = system: NCI-H1651
Method in brief: as §1

NCI-H1993 = system: NCI-H1993
Method in brief: as §1

HARA = system: HARA
Method in brief: as §1

COR-L23 = system: COR-L23
Method in brief: as §1

NCI-H838 = system: NCI-H838
Method in brief: as §1

HCC-44 = system: HCC-44
Method in brief: as §1

SW 1573 = system: SW 1573
Method in brief: as §1

HCC-15 = system: HCC-15
Method in brief: as §1

NCI-H2023 = system: NCI-H2023
Method in brief: as §1

NCI-H2126 = system: NCI-H2126
Method in brief: as §1

Structure (SMILES): CCN(CC)CCCCNc1ncc2cc(-c3cc(OC)cc(OC)c3)c(NC(=O)NC(C)(C)C)nc2n1 + CC1(C)CCC(c2ccc(Cl)cc2)=C(CN2CCN(c3ccc(C(=O)NS(=O)(=O)c4ccc(N[C@H](CCN5CCOCC5)CSc5ccccc5)c(S(=O)(=O)C(F)(F)F)c4)cc3)CC2)C1 [Navitoclax] (partner 0.5 µM)
- relative viability (EPLC-272H; first compound 0.01 µM): 1.14
- relative viability (EPLC-272H; first compound 0.1 µM): 1.07
- relative viability (EPLC-272H; first compound 0.3162 µM): 1.29
- relative viability (EPLC-272H; first compound 1 µM): 0.995
- relative viability (PC-14; first compound 0.01 µM): 1.11
- relative viability (PC-14; first compound 0.03162 µM): 1.06
- relative viability (PC-14; first compound 0.1 µM): 1.15
- relative viability (PC-14; first compound 0.3162 µM): 1.01
- relative viability (PC-14; first compound 1 µM): 0.985
- relative viability (HOP-62; first compound 0.01 µM): 1.15
- relative viability (HOP-62; first compound 0.03162 µM): 1.13
- relative viability (HOP-62; first compound 0.1 µM): 1.29
- relative viability (HOP-62; first compound 0.3162 µM): 0.974
- relative viability (HOP-62; first compound 1 µM): 1.06
- relative viability (NCI-H1915; first compound 0.01 µM): 0.826
- relative viability (NCI-H1915; first compound 0.03162 µM): 0.795
- relative viability (NCI-H1915; first compound 0.1 µM): 0.838
- relative viability (NCI-H1915; first compound 0.3162 µM): 0.749
- relative viability (NCI-H1915; first compound 1 µM): 0.805
- relative viability (NCI-H2347; first compound 0.01 µM): 0.817
- relative viability (NCI-H2347; first compound 0.03162 µM): 0.823
- relative viability (NCI-H2347; first compound 0.1 µM): 0.762
- relative viability (NCI-H2347; first compound 0.3162 µM): 0.833
- relative viability (NCI-H2347; first compound 1 µM): 0.676
- relative viability (NCI-H1355; first compound 0.01 µM): 0.906
- relative viability (NCI-H1355; first compound 0.03162 µM): 1.09
- relative viability (NCI-H1355; first compound 0.1 µM): 0.991
- relative viability (NCI-H1355; first compound 0.3162 µM): 1.02
- relative viability (NCI-H1355; first compound 1 µM): 0.938
- relative viability (LU99A; first compound 0.01 µM): 0.716
- relative viability (LU99A; first compound 0.03162 µM): 0.862
- relative viability (LU99A; first compound 0.1 µM): 0.949
- relative viability (LU99A; first compound 0.3162 µM): 0.85
- relative viability (LU99A; first compound 1 µM): 0.69
- relative viability (LC-2-ad; first compound 0.01 µM): 0.425
- relative viability (LC-2-ad; first compound 0.03162 µM): 0.372
- relative viability (LC-2-ad; first compound 0.1 µM): 0.558
- relative viability (LC-2-ad; first compound 0.3162 µM): 0.511
- relative viability (LC-2-ad; first compound 1 µM): 0.487
- relative viability (UMC-11; first compound 0.01 µM): 0.303
- relative viability (UMC-11; first compound 0.03162 µM): 0.293
- relative viability (UMC-11; first compound 0.1 µM): 0.318
- relative viability (UMC-11; first compound 0.3162 µM): 0.318
- relative viability (UMC-11; first compound 1 µM): 0.308
- relative viability (NCI-H2085; first compound 0.01 µM): 1.08
- relative viability (NCI-H2085; first compound 0.03162 µM): 1.22
- relative viability (NCI-H2085; first compound 0.1 µM): 1.33
- relative viability (NCI-H2085; first compound 0.3162 µM): 1.22
- relative viability (NCI-H2085; first compound 1 µM): 1.06
- relative viability (NCI-H1651; first compound 0.01 µM): 0.983
- relative viability (NCI-H1651; first compound 0.03162 µM): 1.09
- relative viability (NCI-H1651; first compound 0.1 µM): 1.25
- relative viability (NCI-H1651; first compound 0.3162 µM): 1.23
- relative viability (NCI-H1651; first compound 1 µM): 1.03
- relative viability (NCI-H1993; first compound 0.01 µM): 0.904
- relative viability (NCI-H1993; first compound 0.03162 µM): 0.954
- relative viability (NCI-H1993; first compound 0.1 µM): 0.963
- relative viability (NCI-H1993; first compound 0.3162 µM): 1.07
- relative viability (NCI-H1993; first compound 1 µM): 0.895
- relative viability (HARA; first compound 0.01 µM): 1.19
- relative viability (HARA; first compound 0.03162 µM): 1.15
- relative viability (HARA; first compound 0.1 µM): 1.29
- relative viability (HARA; first compound 0.3162 µM): 1.14
- relative viability (HARA; first compound 1 µM): 1.04
- relative viability (COR-L23; first compound 0.01 µM): 1.14
- relative viability (COR-L23; first compound 0.03162 µM): 1.12
- relative viability (COR-L23; first compound 0.1 µM): 1.33
- relative viability (COR-L23; first compound 0.3162 µM): 1.18
- relative viability (COR-L23; first compound 1 µM): 1.12
- relative viability (NCI-H838; first compound 0.01 µM): 1.18
- relative viability (NCI-H838; first compound 0.03162 µM): 1.12
- relative viability (NCI-H838; first compound 0.1 µM): 1.44
- relative viability (NCI-H838; first compound 0.3162 µM): 1.07
- relative viability (NCI-H838; first compound 1 µM): 0.809
- relative viability (HCC-44; first compound 0.01 µM): 1.01
- relative viability (HCC-44; first compound 0.03162 µM): 0.997
- relative viability (HCC-44; first compound 0.1 µM): 1.02
- relative viability (HCC-44; first compound 0.3162 µM): 1.1
- relative viability (HCC-44; first compound 1 µM): 0.937
- relative viability (SW 1573; first compound 0.01 µM): 0.958
- relative viability (SW 1573; first compound 0.03162 µM): 0.963
- relative viability (SW 1573; first compound 0.1 µM): 1.31
- relative viability (SW 1573; first compound 0.3162 µM): 1.25
- relative viability (SW 1573; first compound 1 µM): 1.01
- relative viability (HCC-15; first compound 0.01 µM): 0.748
- relative viability (HCC-15; first compound 0.03162 µM): 0.724
- relative viability (HCC-15; first compound 0.1 µM): 0.859
- relative viability (HCC-15; first compound 0.3162 µM): 0.784
- relative viability (HCC-15; first compound 1 µM): 0.7
- relative viability (NCI-H2023; first compound 0.01 µM): 1.04
- relative viability (NCI-H2023; first compound 0.03162 µM): 0.997
- relative viability (NCI-H2023; first compound 0.1 µM): 1
- relative viability (NCI-H2023; first compound 0.3162 µM): 1.04
- relative viability (NCI-H2023; first compound 1 µM): 0.823
- relative viability (NCI-H2126; first compound 0.01 µM): 0.904
- relative viability (NCI-H2126; first compound 0.03162 µM): 0.845
- relative viability (NCI-H2126; first compound 0.1 µM): 0.916
- relative viability (NCI-H2126; first compound 0.3162 µM): 0.927
- relative viability (NCI-H2126; first compound 1 µM): 0.828
